Test results taken from ChEMBL document CHEMBL1155052, “Hypaphorine, an indole alkaloid from Erythrina velutina, induced sleep on normal mice” (2008).

Experiments:
Assay type in all cases: functional
Conditions in all cases: route intraperitoneal
Mus musculus [1] = assay: Increase in non-rapid eye movement sleep time in C57BL mouse assessed during first hour of administration at 300 mg/kg, ip
Mus musculus [2] = assay: Increase in total sleep time in C57BL mouse assessed during first hour of administration at 300 mg/kg, ip
Mus musculus [3] = assay: Decrease in waking duration in C57BL mouse assessed during first hour of administration at 300 mg/kg, ip; set-up: scale not given: the % may be the effect or the level left

In the case of `C[N+](C)(C)[C@H](Cc1c[nH]c2ccccc12)C(=O)[O-]` [HYPAPHORINE], the Activity (Mus musculus [1]) is reported as 33%, the Activity (Mus musculus [2]) is reported as 32% and the Activity (Mus musculus [3]) is reported as 16%.
